Laboratory results: PMC5834492, “Antimycobacterial drug discovery using Mycobacteria-infected amoebae identifies anti-infectives and new molecular targets” (Scientific Reports, 2018)
Like-named read-outs stand apart in the source and are kept apart here.

What was measured:
[1] = system: M. marinum in A. castellanii; type: cell-based, Mycobacterium marinum; conditions: for A. castellanii / M. marinum normalised growth, control=1.00, mean / Hits A. castellanii/M. marinum assay True/False / anti-infective properties in A. castellanii infection assay: 10 µM
[2] = system: M. marinum in BV2 microglial cells; type: cell-based, Mycobacterium marinum; conditions: for BV2 / M. marinum normalised growth, control=1.00, mean / anti-infective properties in microglial cell (BV2) infection assay / hit in BV2/M. marinum assay True/False: 10 µM
M. marinum luxCDABE = type: cell-based, Mycobacterium marinum; conditions: for M. marinum luxCDABE normalised growth, control = 1.00, mean / M. marinum luxCDABE normalised growth, control=1.00, mean: 10 µM
D. discoideum GFP-ABD = conditions: for D. discoideum GFP-ABD normalised growth, control=1.00, mean: 10 µM
Mtb H37Rv = system: Mtb H37Rv; parameters: method as in Sorrentino et al, 2015; conditions: ref Sorrentino et al, 2015; cited from earlier work
M. marinum GFP = type: cell-based, Mycobacterium marinum; conditions: for M. marinum GFP normalised growth, control=1.00, mean: 10 µM, antibiotic assay
Mtb H37Rv in THP-1 = system: Mtb H37Rv in THP-1; parameters: method as in Sorrentino et al, 2015; conditions: ref Sorrentino et al, 2015, cited from earlier work; for Extracellular MIC90/ Inracellular MIC90: ratio
[3] = THP1 / Mtb H37Rv infection assay

| SMILES | Extracellular MIC90 (Mtb H37Rv) [µM] | A. castellanii / M. marinum normalised growth, control=1.00, mean [1] | IC50 [2] [µM] | BV2 / M. marinum normalised growth, control=1.00, mean [2] | M. marinum luxCDABE normalised growth, control=1.00, mean (M. marinum luxCDABE) | D. discoideum GFP-ABD normalised growth, control=1.00, mean (D. discoideum GFP-ABD) | M. marinum GFP normalised growth, control=1.00, mean (M. marinum GFP) | Intracelullar MIC90 in THP-1 (Mtb H37Rv in THP-1; [3]) [µM] | Extracellular MIC90/ Inracellular MIC90 (Mtb H37Rv in THP-1) | also measured |
| --- | --- | --- | --- | --- | --- | --- | --- | --- | --- | --- |
| N=C(N)c1ccc(CCN2CCC(c3nc(COCC(F)(F)F)c(-c4ccc(F)cc4)o3)CC2)cc1.O=C(O)C(F)(F)F.O=C(O)C(F)(F)F [GI247341A] | – | – | – | – | – | – | – | – | – | Growth inhibition / Cytotoxicity assays: BV2 cells (BV2 cells): False; Intracellular infection assays: A. castellanii / M. marinum [1]: 1.18; Intracellular infection assays: BV2 / M. marinum [2]: 1.21; Antibiotic assays: M. marinum luxCDABE (M. marinum luxCDABE): 0.00; Growth inhibition / Cytotoxicity assays: D. discoideum GFP-ABD (D. discoideum GFP-ABD): 0.77 |
| Cc1cccc(-c2nc(Nc3ccncn3)c3sccc3n2)n1 [GSK153890A] | – | – | – | – | – | – | – | – | – | Growth inhibition / Cytotoxicity assays: BV2 cells (BV2 cells): False; Intracellular infection assays: A. castellanii / M. marinum [1]: 1.21; Intracellular infection assays: BV2 / M. marinum [2]: 1.17; Antibiotic assays: M. marinum luxCDABE (M. marinum luxCDABE): 0.00; Growth inhibition / Cytotoxicity assays: D. discoideum GFP-ABD (D. discoideum GFP-ABD): 1.05 |
| CC(C)(C)C(=O)CC1(O)Oc2ccccc2N=C1C=C(O)C(C)(C)C (stereo not drawn) [GSK262906A] | – | – | – | – | – | – | – | – | – | Growth inhibition / Cytotoxicity assays: BV2 cells (BV2 cells): False; Intracellular infection assays: A. castellanii / M. marinum [1]: 1.04; Intracellular infection assays: BV2 / M. marinum [2]: 1.68; Antibiotic assays: M. marinum luxCDABE (M. marinum luxCDABE): 1.00; Growth inhibition / Cytotoxicity assays: D. discoideum GFP-ABD (D. discoideum GFP-ABD): 0.89 |
| c1ccc(-c2nnc(Sc3ccnc(N4CCN(c5ccncc5)CC4)n3)n2CCCN2CCOCC2)nc1 [GSK547543A] | – | – | – | – | – | – | – | – | – | Growth inhibition / Cytotoxicity assays: BV2 cells (BV2 cells): False; Intracellular infection assays: A. castellanii / M. marinum [1]: 0.99; Intracellular infection assays: BV2 / M. marinum [2]: 1.22; Antibiotic assays: M. marinum luxCDABE (M. marinum luxCDABE): 0.00; Growth inhibition / Cytotoxicity assays: D. discoideum GFP-ABD (D. discoideum GFP-ABD): 0.87 |
| Cc1ccccc1CN1CCC(O)(c2ccc(Cl)c(C(F)(F)F)c2)CC1 [GSK1985270A] | 4.2 | -0.06 | 4.88 | 0.45 | 0.00 | 0.99 | 0.09 | 0.21 | 20 | Hits A. castellanii/M. marinum assay True/False [1]: TRUE; anti-infective properties in A. castellanii infection assay [1]: strong anti-infective properties; anti-infective properties in microglial cell (BV2) infection assay [2]: strong anti-infective properties; hit in BV2/M. marinum assay True/False [2]: TRUE; M. marinum luxCDABE normalised growth, control = 1.00, mean (M. marinum luxCDABE): 0,00; Intracelullar MIC90 in THP-1 (Mtb H37Rv in THP-1; Mtb H37Rv-infected THP1 cells): 0.21 µM |
| COc1ccc(-c2nc(-c3cccc(NC(=O)Cc4ccc(F)cc4)c3)no2)cc1OC [GSK2043267A] | 3.7 | 0.86 | 6.69 | 0.77 | 0.00 | 1.18 | 0.97 | 0.21 | 17.62 | antibiotic activity in M. marinum growth assay (M. marinum GFP; broth): strong antibiotic activity |
| Cc1n[nH]c(C)c1S(=O)(=O)NCc1nc(NCCCc2ccccc2)c2ccccc2n1 [GSK2059310A] | 1.8 | 1.06 | 4.65 | 0.57 | 0.00 | 0.84 | 0.46 | 5.55 | 0.32 | – |
| CCCCS(=O)(=O)Nc1ccc2cnn(C)c2c1 [GSK3011724A] | 1.3 | -0.32 | 4.44 | 0.40 | 0.14 | 0.99 | 0.08 | 0.21 | 6.19 | Hits A. castellanii/M. marinum assay True/False [1]: TRUE; anti-infective properties in A. castellanii infection assay [1]: strong anti-infective properties; anti-infective properties in microglial cell (BV2) infection assay [2]: strong anti-infective properties; hit in BV2/M. marinum assay True/False [2]: TRUE; Intracelullar MIC90 in THP-1 (Mtb H37Rv in THP-1; Mtb H37Rv-infected THP1 cells): 0.21 µM |
| Nc1cc(OCc2ccccc2)ccc1Nc1ccccc1 [GV187303X] | 9.4 | 1.05 | 5.44 | 0.55 | 0.90 | 0.89 | 0.71 | 50 | 0.19 | – |
| Nc1nc(N)c2c(Sc3ccc4ccccc4c3)cccc2n1 [GW369335X] | 8.7 | 0.37 | 4.87 | 0.71 | 0.20 | 0.97 | 0.14 | 5.55 | 1.57 | Hits A. castellanii/M. marinum assay True/False [1]: TRUE; hit in BV2/M. marinum assay True/False [2]: FALSE; Intracelullar MIC90 in THP-1 (Mtb H37Rv in THP-1; Mtb H37Rv-infected THP1 cells): 5.55 µM |
| O=C(NC12CC3CC(CC(C3)C1)C2)c1cc2cc(Cl)ccc2[nH]1 [GW623128X] | 1 | 0.51 | 4.92 | 0.66 | 0.00 | 1.06 | 0.86 | 0.07 | 14.28 | – |
| Cc1cc(OCC(=O)Nc2ccccc2)c2cc(Br)ccc2n1 [GW857165X] | 3.3 | 0.83 | 3.52 | 0.72 | 0.00 | 0.90 | 0.81 | 16.65 | 0.2 | – |
| O=C(C=Cc1cccs1)N1CCN(Cc2ccc3c(c2)OCO3)CC1 [GW861072X] | 0.3 | 0.54 | 7.99 | 0.48 | 0.00 | 0.68 | 0.05 | 0.61 | 0.49 | Hits A. castellanii/M. marinum assay True/False [1]: FALSE; hit in BV2/M. marinum assay True/False [2]: TRUE; M. marinum luxCDABE normalised growth, control = 1.00, mean (M. marinum luxCDABE): 0,00; Intracelullar MIC90 in THP-1 (Mtb H37Rv in THP-1; Mtb H37Rv-infected THP1 cells): 0.61 µM |
| Nc1ccccc1Nc1ccc2c(c1)OCO2 [SB-435634] | 1.8 | 1.04 | 11.4 | 0.63 | 1.00 | 1.14 | 1.08 | 5.55 | 0.32 | – |
| CCc1ccc(S(=O)(=O)Nc2cc(CN3CCN(CCC(C)C)CC3)ccc2C)cc1.O=C(O)C(F)(F)F.O=C(O)C(F)(F)F [SB-811137-V] | 4.7 | 1.15 | 5.94 | 0.85 | 0.18 | 0.88 | 0.94 | 5.55 | 0.85 | – |
